Literature values as cited in patent US20140044685A1, “NUTRITIONAL COMPOSITIONS HAVING ALPHA-HICA AND CITRULLINE” (NESTEC S.A., priority 2011, published 2014).

What was measured:
[1] = piglet stressed with LPS
[2] = test system: intestinal mammalian target of rapamycin (mTOR); conditions: piglet stressed with LPS; leading to increased protein synthesis and anti-inflammatory responses
[3] = malnourished aged animals

Structure (SMILES) | crypt depth [1] | villous height [1] | phosphorylation of intestinal mammalian target of rapamycin (mTOR) [2] | anabolic effect [3]
O=C(O)CCC(=O)C(=O)O [AKG, α-ketoglutarate] | reduced | increased | increased | –
NC(=O)NCCC[C@H](N)C(=O)O [Citrulline, citrulline] | – | – | – | anabolic effect
